Test results taken from patent US20210315869A1, “COMPOUNDS AND METHODS FOR CSK MODULATION AND INDICATIONS THEREFOR” (Plexxikon Inc., priority 2020, published 2021).

Tests used:
CSK = biological target: T1, CSK (Homo sapiens, UniProt P41240); assay: Human CSK enzymatic assay (AlphaScreen, Poly (Glu4-Tyr) substrate); type: biochemical; settings: 100 uM ATP; read-out: CSK IC50 (μM) COFACTOR: 100 uM ATP
T1 construct: purchased Thermo Fisher
Description: This assay measures the ability of CSK to phosphorylate a biotinylated peptide containing multiple tyrosine residues in vitro. The CSK enzyme was purchased from Thermo Fisher. The biotinylated Poly (Glu4-Tyr) peptide substrate was purchased from Sigma-Aldrich. The CSK enzyme assay was performed using 0.75 ng CSK enzyme and 30 nM Poly (Glu4-Tyr) substrate in the presence of 25 mM Hepes pH 7.5, 5 mM Mg Acetate, 0.1% NP-40, 1 mM DTT, 0.01% BSA, and 100 μM ATP. A 19 μL volume of the above reaction mixture was added to wells of 384-well AlphaPlate (PerkinElmer GA, USA) containing 1 μL of various concentrations of test compound or DMSO vehicle and incubated for 60 minutes at room temperature. 16 wells containing all the components of reaction mixture and 5% DMSO serve as high control. 16 wells containing all the components except ATP of reaction mixture and 5% DMSO served as low control. The enzymatic reaction was stopped by the addition of 5 μL stop/detection mixture containing 25 mM Hepes pH 7.5 100 mM EDTA, and 5 μg/mL streptavidin-coated AlphaScreen donor beads (PerkinElmer GA, USA) and incubated for 20 minutes. A 5 μL mixture containing 25 mM Hepes pH 7.5, 100 mM EDTA, and 5 μg/mL anti-phosphotyrosine antibody PY20-coated AlphaScreen acceptor beads (PerkinElmer GA, USA) was added and the plate was incubated for 1 hour at room temperature. The streptavidin donor beads bind to the biotin moiety on the biotinylated Poly (Glu4-Tyr) substrate and the PY20 antibody-coated acceptor beads bind to tyrosine residues on the substrate that have been directly phosphorylated by CSK. Upon excitation of these beads with laser light at 680 nm, singlet oxygen was produced. This singlet oxygen was rapidly quenched, unless the AlphaScreen PY20 acceptor beads are in close proximity, in which case a proximity signal can be measured at 580 nm. In the presence of catalytic activity, there was a very strong proximity signal. Selective CSK inhibitors affect a decrease in this proximity signal through a decrease in phosphorylation of the Poly (Glu4-Tyr) substrate. The percentage of inhibition at individual concentrations relative to high and low controls was calculated. The data were analyzed by using nonlinear regression to generate IC50 values. Human LCK enzymatic assay

LCK = biological target: T2, LCK (Homo sapiens, UniProt P06239); assay: Human LCK enzymatic assay (AlphaScreen, Poly (Glu4-Tyr) substrate); type: biochemical; settings: 100 uM ATP; read-out: LCK IC50 (uM) COFACTOR: 100 uM ATP
T2 construct: purchased ProQinase
T2 sequence (P06239 whole entry): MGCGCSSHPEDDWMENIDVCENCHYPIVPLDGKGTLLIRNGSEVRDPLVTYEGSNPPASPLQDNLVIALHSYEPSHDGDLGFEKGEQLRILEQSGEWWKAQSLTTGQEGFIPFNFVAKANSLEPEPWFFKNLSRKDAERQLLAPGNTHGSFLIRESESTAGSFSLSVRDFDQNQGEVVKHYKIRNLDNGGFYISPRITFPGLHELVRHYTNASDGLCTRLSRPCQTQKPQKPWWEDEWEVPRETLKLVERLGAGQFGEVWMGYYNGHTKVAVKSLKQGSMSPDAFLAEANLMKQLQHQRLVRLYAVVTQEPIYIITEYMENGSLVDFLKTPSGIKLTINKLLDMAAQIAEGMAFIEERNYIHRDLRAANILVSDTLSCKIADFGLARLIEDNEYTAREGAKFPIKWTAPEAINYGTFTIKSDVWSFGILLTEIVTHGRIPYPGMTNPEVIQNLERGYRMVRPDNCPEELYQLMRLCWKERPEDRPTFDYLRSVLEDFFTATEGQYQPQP
Description: This assay measures the ability of LCK to phosphorylate a biotinylated peptide containing multiple tyrosine residues in vitro. The LCK enzyme was purchased from ProQinase. The biotinylated Poly (Glu4-Tyr) peptide substrate was purchased from Sigma-Aldrich. The LCK enzyme assay was performed using 1 ng LCK enzyme and 30 nM Poly (Glu4-Tyr) substrate in the presence of 25 mM Hepes pH 7.5, 10 mM MnCl2, 50 mM NaCl, 0.01% Tween-20, 0.5 mM DTT, 0.01% BSA, and 100 μM ATP. A 19 μL volume of the above reaction mixture was added to wells of 384-well AlphaPlate (PerkinElmer GA, USA) containing 1 μL of various concentrations of test compound or DMSO vehicle and incubated for 40 minutes at 25° C. 16 wells containing all the components of reaction mixture and 5% DMSO served as high control. 16 wells containing all the components except ATP of reaction mixture and 5% DMSO served as low control. The enzymatic reaction was stopped by the addition of 5 μL stop/detection mixture containing 25 mM Hepes pH 7.5 100 mM EDTA, and 10 μg/mL streptavidin-coated AlphaScreen donor beads (PerkinElmer GA, USA) and incubated for 20 minutes. A 5 μL mixture containing 25 mM Hepes pH 7.5, 100 mM EDTA, and 10 μg/mL anti-phosphotyrosine antibody PY20-coated AlphaScreen acceptor beads (PerkinElmer GA, USA) was added and the plate was incubated for 1 hour at room temperature. The streptavidin donor beads bind to the biotin moiety on the biotinylated Poly (Glu4-Tyr) substrate and the PY20 antibody-coated acceptor beads bind to tyrosine residues on the substrate that have been directly phosphorylated by LCK. Upon excitation of these beads with laser light at 680 nm, singlet oxygen was produced. This singlet oxygen was rapidly quenched, unless the AlphaScreen PY20 acceptor beads are in close proximity, in which case a proximity signal can be measured at 580 nm. In the presence of catalytic activity, there was a very strong proximity signal. Selective LCK inhibitors affect a decrease in this proximity signal through a decrease in phosphorylation of the Poly (Glu4-Tyr) substrate. The percentage of inhibition at individual concentrations relative to high and low controls was calculated. The data were analyzed by using nonlinear regression to generate IC50 values.

Jurkat/NFAT-RE cells = assay: NFAT reporter assay (luciferase) in Jurkat/NFAT-RE cells; type: cell-based; settings: Homo sapiens, 0.02 μg/mL anti-CD3 antibody OKT3, 3 hours, read-out: Jurkat EC50 (uM) Cell Assay: Reporter Cell Variant: NFAT response element
Excerpt: To assess the ability of CSK inhibitors to activate LCK and stimulate signaling downstream of the T-cell receptor, an NFAT reporter assay was used for monitoring of LCK activation in cells through the activation of LCK-dependent signaling through a reporter assay. The Jurkat T-cell cell line was genetically engineered to express a luciferase reporter that is regulated by the NFAT-response element. (Clipstone, N. A., & Crabtree, G. R., Identification of calcineurin as a key signalling enzyme in T-lymphocyte activation, Nature, 357(6380), 695-697, 1992). Stimulation of the T-cell receptor with anti-CD3 antibody increases the expression of the luciferase reporter. To test the ability of CSK inhibitors to stimulate LCK and downstream T-cell signaling, the cells were stimulated with a suboptimal concentration of anti-CD3 ligand, to measure the ability of CSK inhibitors to increase luciferase expression.
This assay measures the signaling activity downstream of the T-cell receptor, specifically the ability of the NFAT transcription factor to be translocated to the nucleus and induce expression of a firefly luciferase gene. Jurkat/NFAT-RE cells stably expressing the NFAT reporter construct were purchased from BPS Bioscience. The assay was performed by plating 40,000 Jurkat/NFAT-RE cells in a 50 μL volume of serum-free growth media in a 96-well plate. Following an overnight incubation, the cells were treated with CSK inhibitors and 0.02 μg/mL anti-CD3 antibody OKT3 (BD Bioscience) for 3 hours at 37° C. High control wells were stimulated with DMSO and 5 μg/mL OKT3 to maximally stimulate the NFAT reporter, and low control wells were stimulated with DMSO and 0.02 μg/mL OKT3. Following the 3 hour incubation, the cells were assayed for viability using CellTiter-Fluor™ (Promega), and for luciferase expression using ONE-Glo™ (Promega). The ONE-Glo™ signal was normalized to the CellTiter-Fluor™ signal, and the percentage of NFAT activation relative to high and low controls was calculated. The data were analyzed by using nonlinear regression to generate EC50 values. Selective CSK inhibitors affect an increase in luciferase expression in the presence of low level stimulation of the T-cell receptor.

Row | IC50 (CSK) [µM] | IC50 (LCK) [µM] | EC50 (Jurkat/NFAT-RE cells) [µM] | SMILES
1 | 0.001 to 0.5 | 5 to 100 | 0.5 to 5 | O=c1c(-c2c(F)ccc(NS(=O)(=O)c3cc4scnc4cc3F)c2F)cc2cnc(NCCO)cc2n1C1CC1 [P-0014, N-(3-(1-cyclopropyl-7-((2-hydroxyethyl)amino)-2-oxo-1,2-dihydro-1,6-naphthyridin-3-yl)-2,4-difluorophenyl)-5-fluorobenzo[d]thiazole-6-sulfonamide]
2 | 0.001 to 0.5 | 0.5 to 5 | 0.001 to 0.5 | CC(F)(F)Cn1c(=O)c(-c2c(F)ccc(NS(=O)(=O)c3ccc4ncsc4c3F)c2F)cc2cnc(N)cc21 [P-0020, N-(3-(7-amino-1-(2,2-difluoropropyl)-2-oxo-1,2-dihydro-1,6-naphthyridin-3-yl)-2,4-difluorophenyl)-7-fluorobenzo[d]thiazole-6-sulfonamide]
3 | 0.5 to 5 | 5 to 100 | 5 to 100 | O=c1c(-c2c(F)ccc(NS(=O)(=O)c3cc4scnc4cc3F)c2F)cc2cnccc2n1CC1CC1 [P-0025, N-(3-(1-(cyclopropylmethyl)-2-oxo-1,2-dihydro-1,6-naphthyridin-3-yl)-2,4-difluorophenyl)-5-fluorobenzo[d]thiazole-6-sulfonamide]
